One may read the Ki as the dissociation constant of the complex between target and ligand, obtained from inhibition or displacement. Low values mean tighter binding, high ones weaker binding.

Assay [1] deals with ob/ob mice. To be noted: 30 mg/kg i.p. once daily for 7 days plus twice daily for another 7 days; cited from earlier work.
In assay [2] the test system is rats. To be noted: i.p.; cited from earlier work.
Assay [3] concerns the target T1, human OX-1R (Homo sapiens, UniProt O43613).
T1 construct: expressed in transfected cells; host or cells: HEK293EBNA
T1 sequence (O43613 1-425): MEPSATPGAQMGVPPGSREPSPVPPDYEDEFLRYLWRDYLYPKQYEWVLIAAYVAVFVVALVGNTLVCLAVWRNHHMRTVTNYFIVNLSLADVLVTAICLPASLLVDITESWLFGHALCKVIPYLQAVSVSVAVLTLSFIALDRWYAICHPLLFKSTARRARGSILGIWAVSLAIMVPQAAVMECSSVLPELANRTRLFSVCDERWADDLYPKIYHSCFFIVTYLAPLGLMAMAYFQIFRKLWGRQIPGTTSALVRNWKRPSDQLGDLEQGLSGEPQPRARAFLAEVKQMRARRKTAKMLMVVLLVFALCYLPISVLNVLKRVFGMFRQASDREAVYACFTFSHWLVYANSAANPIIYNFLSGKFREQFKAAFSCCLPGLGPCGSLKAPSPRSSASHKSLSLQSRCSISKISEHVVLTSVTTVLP
Briefly: Functional Ki determination: inhibition of orexin-A induced Ca2+ release (FLIPR, Fluo-4AM) in HEK293EBNA cells stably expressing OX-1R. In kind it is cell-based. On the procedure: Human embryonic kidney (HEK293EBNA) cells stably expressing OX-1R seeded in 96- or 384-well plates are pre-loaded with Ca^2+ sensing probe Fluo-4AM fluorescent dye for 60 min before addition of test compounds (10 μM for primary screen). Fluorescent intensity, which is a measurement of Ca^2+ concentration inside the cells, is recorded using a Fluorometric imaging plate reader (FLIPR 98R 96-well format or FLIPR 3, 384-well format, Molecular Devices) and inhibition of the peak response evoked by orexin-A (EC70 concentration) is calculated. Potency (Ki) determinations are performed utilizing the same functional assay as described for primary screening, applying the compounds in the concentration range of 340 pM to 20 μM and recording the concentration resulting in a 50% inhibition of orexin-A induced Ca^2+ release (IC50) and from there calculating the inhibition constant (Ki).
The calculation of the functional Ki values for the inhibitors was performed by use of Activity Base. The Ki value is calculated from IC50 using the Cheng Prushoff equation (with reversible inhibition that follows the Michaelis-Menten equation): Ki=IC50/(1+[S]/Km) (Cheng, Y. C. & Prushoff, W. H. (1973) Biochem. Pharmacol. 22:3099-3108).

With `Cc1nc2ccc(NC(=O)Nc3ccnc4cccnc34)cc2o1` [SB-334867], in assay [1], the body weight gain result is “suppressed”, the cumulative food intake entry is on record as “suppressed”, the lean body mass entry is “unchanged” and the total fat mass result is “reduced”. Moreover, the behavioral satiety sequence entry in assay [2] was “advances the behavioral satiety sequence increasing the time the animals spend resting”.

`COc1cc(-c2ccc3c(c2)OC2(CCNCC2)O3)cc(OC)c1OC` [Example 4, 5-(3,4,5-trimethoxyphenyl)spiro[1,3-benzodioxole-2,4′-piperidine]]: in assay [3], the inhibition constant Ki was determined as 0.823 µM.

With `O=C(COc1cccc(-c2ccc3c(c2)COC2(CCNCC2)O3)c1)Nc1ccccc1` [Example 8, N-phenyl-2-[3-(4H-spiro[1,3-benzodioxine-2,4′-piperidin]-6-yl)phenoxy]acetamide], the affinity in assay [3] corresponds to a Ki of 0.253 µM.

`COc1cc(-c2ccc3c(c2)COC2(CCNCC2)O3)cc(OC)c1OC` [Example 2, 6-[3,4,5-trimethoxyphenyl]-4H-spiro[1,3-benzodioxine-2,4′-piperidine]]: the affinity in assay [3] corresponds to a Ki of 0.349 µM.
